Test results taken from patent US20070270484A1, “3'-N-Substituted-3-O-Substituted Erythronolide a Derivatives” (priority 2003, published 2007).
≈ marks a conversion by molar mass, not a printed value.

Tests used:
S. pneum AB 29 (erm) = test: microbe, parasite or virus in culture; type: cell-based, streptococcus pneumoniae; settings: for Minimum Inhibitory Concentrations, S. pneum AB 29 (erm): agar dilution, 18-24 hours, 35±2° C., 5% CO2, erm: ribosomal modification (mutation) erm genes; for MIC: Streptococcus pneumoniae, read-out: Minimum Inhibitory Concentrations, S. pneum AB 29 (erm)
Method: (§1) Drug dilutions and the agar plates are prepared by NCCLS method. Inoculum is prepared by direct colony suspensions in normal saline and adjusted to 0.5 McFarland turbidity and subsequently diluted as per NCCLS guidelines in order to obtain 10^4 CFU/spot. CFU/ml of a few randomly selected cultures is performed. The cultures are replicated on the agar plates using replicator (Denley's multipoint). The plates are incubated at 35±2° C. and in 5% CO2 atmosphere (for respiratory and Haemophilus strains) for 18-24 hours at 35±2° C. Minimum inhibitory concentrations (MIC) are determined after 18-24 hours. Q. C. strains are also included in each run of the study. The cation content of Mueller Hinton agar is checked by performing disk […] of 10 μg gentamicin disk against Pseudomonas aeroginosa ATCC 27853. The zone of inhibition should fall between 16-21 mm. The concentration of drug at which there is complete disappearance of growth spot or formation of less than 10 colonies per spot is considered as MIC.

S. pneum 1256 (erm) = test: microbe, parasite or virus in culture; type: cell-based, streptococcus pneumoniae; settings: for Minimum Inhibitory Concentrations, S. pneum 1256 (erm): agar dilution, 18-24 hours, 35±2° C., 5% CO2, erm: ribosomal modification (mutation) erm genes
Method: as §1

S. pneum AB 30 (erm) = test: microbe, parasite or virus in culture; type: cell-based, streptococcus pneumoniae; settings: for Minimum Inhibitory Concentrations, S. pneum AB 30 (erm): agar dilution, 18-24 hours, 35±2° C., 5% CO2, erm: ribosomal modification (mutation) erm genes; for MIC: Streptococcus pneumoniae, read-out: Minimum Inhibitory Concentrations, S. pneum AB 30 (erm)
Method: as §1

S. pneum 1275 (erm) = test: microbe, parasite or virus in culture; type: cell-based, streptococcus pneumoniae; settings: for Minimum Inhibitory Concentrations, S. pneum 1275 (erm): agar dilution, 18-24 hours, 35±2° C., 5% CO2, erm: ribosomal modification (mutation) erm genes; for MIC: Streptococcus pneumoniae, read-out: Minimum Inhibitory Concentrations, S. pneum 1275 (erm)
Method: as §1

S. pneum 1294 (mef) = test: microbe, parasite or virus in culture; type: cell-based, streptococcus pneumoniae; settings: for Minimum Inhibitory Concentrations, S. pneum 1294 (mef): agar dilution, 18-24 hours, 35±2° C., 5% CO2, mef: efflux pump mef genes
Method: as §1

S. pneum AB 14 (erm) = test: microbe, parasite or virus in culture; type: cell-based, streptococcus pneumoniae; settings: for Minimum Inhibitory Concentrations, S. pneum AB 14 (erm): agar dilution, 18-24 hours, 35±2° C., 5% CO2, erm: ribosomal modification (mutation) erm genes
Method: as §1

MoraXella MI = test: MIC, agar incorporation method (NCCLS agar dilution method); type: cell-based; settings: 18-24 hours, 35±2° C.; for MIC: Moraxella, read-out: Minimum Inhibitory Concentrations, MoraXella MI
Method: as §1

H. inflenza ATCC 49247 = test: as above; type: cell-based, Haemophilus influenzae; settings: for Minimum Inhibitory Concentrations, H. inflenza ATCC 49247: agar dilution, 18-24 hours, 35±2° C., 5% CO2; for MIC: Haemophilus influenzae, ATCC49247, read-out: Minimum Inhibitory Concentrations, H. inflenza ATCC 49247
Method: Minimum inhibitory concentrations (μg/ml) were obtained for representative compounds of the invention, which are given in Table 2.
as §1

S. pneum CS 1687 (mef) = test: as above; type: cell-based, streptococcus pneumoniae; settings: 18-24 hours, 35±2° C., 5% CO2, mef: efflux pump mef genes; for MIC: Streptococcus pneumoniae, read-out: Minimum Inhibitory Concentrations, S. pneum CS 1687 (mef)
Method: as §1

S. pneum 1251 (mef) = test: as above; type: cell-based, streptococcus pneumoniae; settings: 18-24 hours, 35±2° C., 5% CO2, mef: efflux pump mef genes; for MIC: Streptococcus pneumoniae, read-out: Minimum Inhibitory Concentrations, S. pneum 1251 (mef)
Method: as §1

S. pneum ATCC 49619 = test: as above; type: cell-based, streptococcus pneumoniae; settings: 35±2° C.; for Minimum Inhibitory Concentrations, S. pneum ATCC 49619: 18-24 hours, 5% CO2; for MIC: Streptococcus pneumoniae, ATCC49619, 18-24 hours, 5% CO2, read-out: Minimum Inhibitory Concentrations, S. pneum ATCC 49619
Method: as §1

S. pneum ATCC 6303 = test: as above; type: cell-based, streptococcus pneumoniae; settings: 35±2° C.; for Minimum Inhibitory Concentrations, S. pneum ATCC 6303: 18-24 hours, 5% CO2; for MIC: Streptococcus pneumoniae, ATCC6303, 18-24 hours, 5% CO2, read-out: Minimum Inhibitory Concentrations, S. pneum ATCC 6303
Method: as §1

S. pneum AB 34 (mef) = test: as above; type: cell-based, streptococcus pneumoniae; settings: 18-24 hours, 35±2° C., 5% CO2, mef: efflux pump mef genes; for MIC: Streptococcus pneumoniae, read-out: Minimum Inhibitory Concentrations, S. pneum AB 34 (mef)
Method: as §1

Row | Compound | Minimum Inhibitory Concentrations, S. pneum AB 29 (erm) (S. pneum AB 29 (erm)) [µg/mL] | Minimum Inhibitory Concentrations, S. pneum 1256 (erm) (S. pneum 1256 (erm)) [µg/mL] | Minimum Inhibitory Concentrations, S. pneum AB 30 (erm) (S. pneum AB 30 (erm)) [µg/mL] | Minimum Inhibitory Concentrations, S. pneum 1275 (erm) (S. pneum 1275 (erm)) [µg/mL] | Minimum Inhibitory Concentrations, S. pneum 1294 (mef) (S. pneum 1294 (mef)) [µg/mL] | Minimum Inhibitory Concentrations, S. pneum AB 14 (erm) (S. pneum AB 14 (erm)) [µg/mL] | Minimum Inhibitory Concentrations, MoraXella MI (MoraXella MI) [µg/mL] | Minimum Inhibitory Concentrations, H. inflenza ATCC 49247 (H. inflenza ATCC 49247) [µg/mL] | Minimum Inhibitory Concentrations, S. pneum CS 1687 (mef) (S. pneum CS 1687 (mef)) [µg/mL] | Minimum Inhibitory Concentrations, S. pneum 1251 (mef) (S. pneum 1251 (mef)) [µg/mL] | Minimum Inhibitory Concentrations, S. pneum ATCC 49619 (S. pneum ATCC 49619) [µg/mL] | Minimum Inhibitory Concentrations, S. pneum ATCC 6303 (S. pneum ATCC 6303) [µg/mL] | Minimum Inhibitory Concentrations, S. pneum AB 34 (mef) (S. pneum AB 34 (mef)) [µg/mL] | further results
1 | 3-O-(2-Fluorophenyl)acetyl-5-O-(3′-N-desmethyl-3′-N-allyl)desosaminyl-6-O-methyl erythronolide A [Compound No. 23] | 1 | >16 | >16 | >16 | 2 | >16 | 16 | >16 | 2 | 2 | 2 | 2 | >16 | 
2 | 3-O-(2-Fluorophenyl)acetyl-5-O-(3′-N-desmethyl-3′-N-propargyl)desosaminyl-6-O-methyl erythronolide A [Compound No. 21] | >16 | >16 | >16 | >16 | 2 | >16 | 0.25 | >16 | 0.5 | 0.25 | >16 | 0.5 | >16 | 
3 | 3-O-(2-Pyridyl)acetyl-5-O-(3′-N-desmethyl-3′-N-cyclopropylmethyl)desosaminyl-6-O-methyl erythronolide A [Compound No. 50] | 0.5 | >16 | >16 | >16 | 2 | >16 | 2 | >16 | 1 | 0.5 | 0.5 | 0.5 | >16 | 
4 | 3-O-(4-Nitrophenyl)acetyl-5-O-(3′-N-desmethyl-3′-N-ethyl)desoaminyl-6-O-methyl erythronolide A [Compound No. 30] | <0.5 | >16 | >16 | >16 | 2 | >16 | 4 | >16 | 1 | 1 | 1 | 1 | >16 | 
5 | CC[C@H]1OC(=O)[C@H](C)[C@@H](O[C@H]2C[C@@](C)(OC)[C@@H](O)[C@H](C)O2)[C@H](C)[C@@H](O[C@@H]2O[C@H](C)C[C@H](N(C)C)[C@H]2O)[C@](C)(OC)C[C@@H](C)C(=O)[C@H](C)[C@@H](O)[C@]1(C)O [C, Clarithromycin, reference compound] |  |  |  |  |  |  |  |  |  |  |  |  |  | MIC (S. pneum AB 29 (erm)): > 16 µg/mL; MIC (S. pneum 1256 (erm); Streptococcus pneumoniae, read-out: Minimum Inhibitory Concentrations, S. pneum 1256 (erm)): > 16 µg/mL; MIC (S. pneum AB 30 (erm)): > 16 µg/mL; MIC (S. pneum 1275 (erm)): > 16 µg/mL; MIC (S. pneum 1294 (mef); Streptococcus pneumoniae, read-out: Minimum Inhibitory Concentrations, S. pneum 1294 (mef)): > 16 µg/mL; MIC (S. pneum AB 14 (erm); Streptococcus pneumoniae, read-out: Minimum Inhibitory Concentrations, S. pneum AB 14 (erm)): > 16 µg/mL; MIC (MoraXella MI): 0.125 µg/mL (≈ 0.167 µM); MIC (H. inflenza ATCC 49247): 8 µg/mL (≈ 10.7 µM); MIC (S. pneum CS 1687 (mef)): > 16 µg/mL; MIC (S. pneum 1251 (mef)): 8 µg/mL (≈ 10.7 µM); MIC (S. pneum ATCC 49619): 0.008 µg/mL (≈ 0.0107 µM); MIC (S. pneum ATCC 6303): 0.008 µg/mL (≈ 0.0107 µM); MIC (S. pneum AB 34 (mef)): > 16 µg/mL
6 | CCC1OC(=O)C(C)C(OC(=O)Cc2ccc(F)cc2)C(C)C(OC2OC(C)CC(N(C)Cc3cccc(O)c3)C2O)C(C)(OC)CC(C)C(=O)C(C)C(O)C1(C)O (centres unmarked) [Compound No. 17, 3-O-(4-Fluorophenyl)acetyl-5-O-[3′-N-desmethyl-3′-N-(3-hydroxy)benzyl] desosaminyl-6-O-methyl erythronolide A] | <0.5 | >16 | >16 | >16 | 1 | >16 | 8 | >16 | 1 | 1 | <0.5 | <0.5 | >16 | 
7 | C#CCN(C)C1CC(C)OC(OC2C(C)C(OC(=O)Cc3ccc(F)cc3)C(C)C(=O)OC(CC)C(C)(O)C(O)C(C)C(=O)C(C)CC2(C)OC)C1O (centres unmarked) [Compound No. 18, 3-O-(4-Fluorophenyl)acetyl-5-O-(3′-N-desmethyl-3′-N-propargyl)desosaminyl-6-O-methyl erythronolide A] | 1 | >16 | >16 | >16 | 1 | 16 | 16 | >16 | 1 | 1 | 1 | 1 | 1 | 
8 | CC[C@H]1OC(=O)[C@H](C)C(=O)[C@H](C)[C@@H](O[C@@H]2O[C@H](C)C[C@H](N(C)C)[C@H]2O)[C@](C)(OC)C[C@@H](C)C(=O)[C@H](C)[C@H]2N(CCCCn3cnc(-c4cccnc4)c3)C(=O)O[C@]12C [T, Telithromycin, reference compound] |  |  |  |  |  |  |  |  |  |  |  |  |  | MIC (S. pneum AB 29 (erm)): 0.25 µg/mL (≈ 0.308 µM); MIC (S. pneum AB 30 (erm)): 0.25 µg/mL (≈ 0.308 µM); MIC (S. pneum 1275 (erm)): 0.008 µg/mL (≈ 0.00985 µM); MIC (MoraXella MI): 0.03 µg/mL (≈ 0.0369 µM); MIC (H. inflenza ATCC 49247): 2 µg/mL (≈ 2.46 µM); MIC (S. pneum CS 1687 (mef)): 0.125 µg/mL (≈ 0.154 µM); MIC (S. pneum 1251 (mef)): 0.5 µg/mL (≈ 0.616 µM); MIC (S. pneum ATCC 49619): 0.008 µg/mL (≈ 0.00985 µM); MIC (S. pneum ATCC 6303): 0.015 µg/mL (≈ 0.0185 µM); MIC (S. pneum AB 34 (mef)): 0.125 µg/mL (≈ 0.154 µM)
